In PMC3111459 (Breast cancer research and treatment, 2011):

Tests used:
[1] = human, in vivo
[2] = tested on: OATP1B3; settings: in vitro; cited from earlier work
[3] = clinical; settings: human, in vivo
[4] = tested on: OAT2; settings: in vitro; cited from earlier work
[5] = clinical; settings: human, in vivo; remark: listed apart in the source

CC(=O)O[C@@]12CO[C@@H]1C[C@H](O)[C@@]1(C)C(=O)[C@H](O)C3=C(C)[C@@H](OC(=O)[C@H](O)[C@@H](NC(=O)OC(C)(C)C)c4ccccc4)C[C@@](O)([C@@H](OC(=O)c4ccccc4)[C@H]21)C3(C)C [Docetaxel]
CL [1]: 18.1 ± 4.35(7) l/h | T1/2 [1]: 60.2 ± 31.0(7) h | substrate for liver OATP1B3 [2]: substrates for liver OATP1B3 | clearance ([3]; CL): 272 mL/min | half-life ([3]; T1/2): 45.1 ± 20 h | substrate for liver OAT2 [4]: substrate for liver OAT2

Cc1ccc(NC(=O)c2ccc(CN3CCN(C)CC3)cc2)cc1Nc1nccc(-c2cccnc2)n1 [Imatinib]
Tmax [5]: 5 h
